What was measured:
Format in all cases: in vivo
[1] = tested on: Brassica napus plants heterozygous for the chlorsulfuron-resistant mutation (wt×30b); assay: Experiment 5 part (b): back-crossed progeny ((wt×30b)×wt) of sprayed ovule parent
Method: (§1) The heterozygous plants were allowed to self pollinate and resulting seeds harvested at maturity. This next generation was screened for chlorsulfuron resistance as previously described (Conner et al. (1994). Briefly, this involved surface sterilizing the seeds (10-12 minutes in 1% sodium hypochlorite, plus a drop of Tween 20), followed by 2-3 rinses in sterile water, then sowing the seeds in vitro onto the surface of a medium consisting of half strength MS salts at pH 5.8 (Murashige and Skoog Physiologia Plantarum 15:473-497 (1962)) supplemented with 10 ug/liter chlorsulfuron and 6.5 g/liter agar. Seeds were then germinated at 24-26° C. under cool white fluorescent lights (80-100) umol/m2/sec; 16 h light: 8 h darkness daily).
(§2) Seeds generally germinated after 3-4 days and were scored for chlorsulfuron resistance 5-7 days after sowing. Resistant seedlings had long healthy roots (4-6 cm) that penetrated into the gelled medium, with healthy green cotyledons.
(§3) To further explore the underlying reasons accounting for the induced skewed segregation, additional crosses using the 30b mutant were performed. At specified times the plants were sprayed with chlorsulfuron and the progeny evaluated as described in Experiment 1 above.
Part (b). Plants heterozygous for the chlorsulfuron-resistant mutation (wt×30b) were either not sprayed, or sprayed with chlorsulfuron at varying times during development. The back crossed-progeny ((wt×30b)×wt), resulting from pollen from non-sprayed wildtype plants were screened for chlorsulfuron resistance as described in Experiment 1.

[2] = tested on: Brassica napus plants heterozygous for the chlorsulfuron-resistant mutation (wt×30b); assay: Experiment 5 part (d): back-crossed progeny ((wt×30b)×30b) of sprayed female parent; settings: heterozygous female parent sprayed just prior to bolting
Method: as §1, §2, §3
Part (d). Plants heterozygous for the chlorsulfuron-resistant mutation (wt×30b) were either not sprayed, or sprayed with chlorsulfuron just prior to bolting. […]

[3] = tested on: Brassica napus plants heterozygous for the chlorsulfuron-resistant mutation (wt×30b); assay: Experiment 5 part (a): self-pollinated seed of heterozygous plants sprayed at varying times
Method: as §1, §2, §3
Part (a). Plants heterozygous for the chlorsulfuron-resistant mutation (wt×30b) were either not sprayed, or sprayed with chlorsulfuron at varying times during development. The self-pollinated seed was harvested, and the germinated seedlings were screened for chlorsulfuron resistance.

[4] = tested on: Transgenic potato plants (Solanum tuberosum cv. Iwa), line SCI1; assay: Experiment 4: segregation of GUS activity in selfed progeny of sprayed transgenic potato; settings: sprayed once three weeks after planting, 20 g/ha
Excerpt: The Solanum tuberosum, subspecies tuberosum, plant line used: SCI1 (Conner et al., Journal of Cellular Biochemistry 13D: 333 (1989)). This line of potato is transformed with the T-DNA from pKIWI100 and expresses transgenes conferring kanamycin resistance, β-glucuronidase (GUS) activity, and chlorsulfuron resistance. The cultivated varieties of potato grown in the United States and Europe are predominantly tetraploid (i.e., four complete sets of chromosomes) (Plaisted, R. L., Potato, Chapter 34:483-494, In Hybridization of Crop Plants, supra; Allard, pg. 6, supra.
Plants of the original transgenic line were vegetatively propagated via tubers which were planted in a containment greenhouse. Soon after sprouting (three weeks after planting) the plants were sprayed once with either water of chlorsulfuron at the equivalent rate of 20 g/ha Plants were self pollinated at flowering and berries harvested 15 weeks after spraying. Seeds were extracted and germinated, and the progeny histochemically screened for GUS activity.

[5] = tested on: Brassica napus (30b) mutant; assay: Experiment 1: segregation of chlorsulfuron resistance in selfed progeny of sprayed heterozygous plants
Excerpt: A homozygous line of a Brassica napus (30b) mutant, with a single gene conferring sulfonylurea resistance (Conner et al., Proceedings of the 47th New Zealand Plant Protection Conference, 173-177 (1994)), was used in this study. Brassica napus are self-fertile, with about 80% of the seed normally arising from self-pollination, although a greater degree of cross-pollination may occur when insect pollinators are abundant (Downey et al., Rapeseed and Mustard, Chapter 35:495-509, In Hybridization of Crop Plants, supra). B. napus is commonly referred to as canola, rape and oilseed rape.
The 30b mutant line was hybridized to a herbicide-sensitive genotype to generate a seed population heterozygous for sulfonylurea resistance. These heterozygous seeds were sown, repotted into individual pots in a greenhouse, and individuals were randomly divided into 3 populations:
(ii) plants sprayed once with chlorsulfuron (a sulfonylurea herbicide) at a rate of 3 mg/liter until runoff, just as the plants were beginning to bolt (development of flowering stems) (19 plants).
(iii) plants sprayed with chlorsulfuron at a rate of 3 mg./liter until runoff, just as the plants were beginning to bolt, and then every 2 weeks until initiation of plant senescence (18 plants).
as §1, §2

[6] = tested on: Transgenic forage brassica plants (Brassica napus cv. Giant), line G/HR10; assay: Experiment 3: segregation of GUS activity in selfed progeny of sprayed transgenic forage brassica; settings: sprayed once prior to bolting, 20 g/ha
Excerpt: Plant line used: G/HR10 (Christey and Sinclair, Plant Science: 87 161-169 (1992)). This line contains a single insertion of the T-DNA from pKIWI110 and expresses transgenes conferring kanamycin resistance, β-glucuronidase (GUS) activity, and chlorsulfuron resistance.
Plants of the original transgenic line were cloned in vitro, then transferred to a containment greenhouse. […] The plants were allowed to self-pollinate and the seeds were harvested five months after spraying. The progeny germinated and histochemically screened for GUS activity.

[7] = tested on: Brassica napus mutant (19c); assay: Experiment 2: segregation of chlorsulfuron resistance in selfed progeny of sprayed heterozygous plants
Method: as §1, §2
A further chlorsulfuron-resistant Brassica napus mutant (19c), of independent origin to mutant 30b (Conner et al., Proceedings of the 47th New Zealand Plant Protection Conference, 173-177 (1994)) was subjected to identical experiments described above for mutant 30b.

[8] = tested on: Brassica napus plants heterozygous for the chlorsulfuron-resistant mutation (wt×30b); assay: Experiment 5 part (c): back-crossed progeny (wt×(wt×30b)) of sprayed pollen parent; settings: pollen parent sprayed just prior to bolting
Method: as §1, §2, §3
Part (c). Plants heterozygous for the chlorsulfuron-resistant mutation (wt×30b) were either not sprayed, or sprayed with chlorsulfuron just prior to bolting. The pollen from these plants was back-crossed to non-sprayed wildtype plants, and the resulting progeny (wt×(wt×30b)) were screened for chlorsulfuron resistance as described in Experiment 1.

[9] = sprayed 2 weeks after pods full size
[10] = sprayed at pods reaching full size
[11] = sprayed at seedlings (2-3 leaves)
[12] = total of 18 plants repeatedly sprayed
[13] = total of 19 plants sprayed once

COc1nc(C)nc(NC(=O)NS(=O)(=O)c2ccccc2Cl)n1 [chlorsulfuron]
Number of herbicide-resistant seedlings [1, 9]: 104 | Number of herbicide-sensitive seedlings [1, 9]: 37 | Number of seeds per pod [1, 9]: 4.3 | Number of herbicide-resistant seedlings [1, 10]: 127 | Number of herbicide-sensitive seedlings [1, 10]: 28 | Number of seeds per pod [1, 10]: 4.0 | Number of herbicide-resistant seedlings ([1]; sprayed just prior to bolting): 134 | Number of herbicide-sensitive seedlings ([1]; sprayed just prior to bolting): 5 | Number of seeds per pod ([1]; sprayed just prior to bolting): 3.4 | Number herbicide-sensitive seedlings [2]: 0 | Number of herbicide-resistant seedlings [2]: 111 | Number of herbicide-resistant seedlings [3, 9]: 184 | Number of herbicide-sensitive seedlings [3, 9]: 26 | Number of seeds per pod [3, 9]: 6.2 | Number of herbicide-resistant seedlings [3, 10]: 160 | Number of herbicide-sensitive seedlings [3, 10]: 16 | Number of seeds per pod [3, 10]: 5.8 | Number of herbicide-resistant seedlings [3, 11]: 440 | Number of herbicide-sensitive seedlings [3, 11]: 11 | Number of seeds per pod [3, 11]: 5.6 | Number of herbicide-resistant seedlings ([3]; sprayed just prior to bolting): 565 | Number of herbicide-sensitive seedlings ([3]; sprayed just prior to bolting): 5 | Number of seeds per pod ([3]; sprayed just prior to bolting): 5.4 | GUS-negative progeny [4]: 12 | GUS-positive progeny [4]: 136 | Resistance of progeny of sprayed heterozygous plants (in words) ([5]; both spray regimes): virtually all the progeny obtained were resistant to chlorsulfuron | Number of herbicide-resistant progeny, Total [5, 12]: 728 | Number of herbicide-sensitive progeny, Total [5, 12]: 2 | Number of herbicide-resistant progeny, Total [5, 13]: 1588 | Number of herbicide-sensitive progeny, Total [5, 13]: 17 | GUS-negative progeny ([6]; Population A): 13 | GUS-positive progeny ([6]; Population A): 78 | GUS-negative progeny ([6]; Population B): 16 | GUS-positive progeny ([6]; Population B): 96 | Number of herbicide-resistant seedlings ([7]; repeated fortnightly sprays from bolting): 96 | Number of herbicide-resistant seedlings ([7]; sprayed just prior to bolting): 398 | Number of herbicide-sensitive seedlings ([7]; sprayed just prior to bolting): 31 | Number of herbicide-resistant seedlings [8]: 381 | Number of herbicide-sensitive seedlings [8]: 112 | Number of seeds per pod [8]: 6.3

— patent US20040025201A1, “True breeding transgenics from plants heterozygous for transgene insertions” (New Zealand Institute for Crop & Food Research Lim, priority 1995, published 2004)
